Patent US20110281911A1, “NOVEL FORMS OF EPERISONE” (Bionevia Pharmaceuticals, Inc., priority 2008, published 2011)
Counter-ions that a name gives are not always drawn.

Assay: Solubility in acetonitrile, calculated based on the total solvent used to give a solution
Type: physicochemical
Settings: organic solvent or mixture, thermodynamic from solid

solubility: > 11 mg/mL
Structure (SMILES): CCc1ccc(C(=O)C(C)CN2CCCCC2)cc1 (single isomer, unassigned) [substantially enantiopure crystalline eperisone hydrochloride, eperisone hydrochloride]
